This test deals with hDGAT2 (Homo sapiens (Human), UniProt Q96PD7). In words: DGAT2 Enzymatic Activity Assay. The class given is biochemical. To be noted: hDGAT2 Sf-9 membrane prep; 25 μM diolein, 10 μM oleoyl-CoA; triolein product by LC/MS/MS; read-out: IC50 values for inhibition of DGAT2. In a few lines:
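Membranes from Sf-9 cells expressing untagged hDGAT2 (10 ng/μL) incubated at room temperature with 25 μM diolein and 10 μM oleoyl-CoA in 100 mM Tris pH 7.0, 20 mM MgCl2, 5% ethanol. Triolein product quantified by LC/MS/MS against spiked internal standard; IC50 from 4-parameter sigmoidal fit.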
hDGAT2, sequence (Q96PD7 whole entry): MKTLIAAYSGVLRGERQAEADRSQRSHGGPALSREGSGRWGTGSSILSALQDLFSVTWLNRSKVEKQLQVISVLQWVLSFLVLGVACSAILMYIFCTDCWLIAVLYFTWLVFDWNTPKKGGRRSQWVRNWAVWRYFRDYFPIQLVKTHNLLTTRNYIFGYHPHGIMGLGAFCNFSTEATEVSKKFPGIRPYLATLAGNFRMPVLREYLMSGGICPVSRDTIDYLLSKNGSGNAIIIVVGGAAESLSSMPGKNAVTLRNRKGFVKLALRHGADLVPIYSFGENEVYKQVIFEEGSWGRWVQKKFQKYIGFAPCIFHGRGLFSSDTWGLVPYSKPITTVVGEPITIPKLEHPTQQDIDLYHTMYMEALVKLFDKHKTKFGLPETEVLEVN
As a reminder, the IC50 is the concentration that inhibits the measured activity by half. As for `Cc1noc([C@@H]2C[C@H]2C(=O)NCc2ccc(-c3cccc(OC(F)(F)F)c3)c3c2CN(Cc2noc(C(C)C)n2)CC3)n1` (relative stereo) [Example 104, (trans)-N-((2-((5-isopropyl-1,2,4-oxadiazol-3-yl)methyl)-5-(3-(trifluoromethoxy)phenyl)-1,2,3,4-tetrahydroisoquinolin-8-yl)methyl)-2-(3-methyl-1,2,4-oxadiazol-5-yl)cyclopropanecarboxamide], the IC50 amounted to 5090 nM.

With `Cc1noc([C@@H]2C[C@H]2C(=O)NCc2ccc(-c3cccc(OC(F)(F)F)c3)c3c2CN(Cc2ccncn2)CC3)n1` (relative stereo) [Example 105, (trans)-2-(3-methyl-1,2,4-oxadiazol-5-yl)-N-((2-(pyrimidin-4-ylmethyl)-5-(3-(trifluoromethoxy)phenyl)-1,2,3,4-tetrahydroisoquinolin-8-yl)methyl)cyclopropanecarboxamide], the IC50 worked out at 2610 nM.

Take `Cc1noc([C@@H]2C[C@H]2C(=O)NCc2ccc(-c3cccc(OC(F)(F)F)c3)c3c2CN(Cc2scnc2C)CC3)n1` (relative stereo) [Example 106, (trans)-2-(3-methyl-1,2,4-oxadiazol-5-yl)-N-((2-((4-methylthiazol-5-yl)methyl)-5-(3-(trifluoromethoxy)phenyl)-1,2,3,4-tetrahydroisoquinolin-8-yl)methyl)cyclopropanecarboxamide]: the IC50 turned out to be 1840 nM.

With `Cc1noc([C@@H]2C[C@H]2C(=O)NCc2ccc(-c3cccc(OC(F)(F)F)c3)c3c2CN(Cc2cnccn2)CC3)n1` (relative stereo) [Example 107, (trans)-2-(3-methyl-1,2,4-oxadiazol-5-yl)-N-((2-(pyrazin-2-ylmethyl)-5-(3-(trifluoromethoxy)phenyl)-1,2,3,4-tetrahydroisoquinolin-8-yl)methyl)cyclopropanecarboxamide], the IC50 is 4770 nM.

With `COc1cccc(-c2ccc(CNC(=O)[C@H]3C[C@@H]3c3ccccc3)c3c2CCN(c2nccc(C(F)(F)F)n2)C3)c1` (relative stereo) [Example 109, (trans)-N-((5-(3-methoxyphenyl)-2-(4-(trifluoromethyl)pyrimidin-2-yl)-1,2,3,4-tetrahydroisoquinolin-8-yl)methyl)-2-phenylcyclopropanecarboxamide], the IC50 came out at 4040 nM.

Take `COc1cccc(-c2ccc(CNC(=O)[C@@H]3C[C@H]3c3ccccc3)c3c2CCN(C(=O)c2cc(F)cc(F)c2)C3)c1` (relative stereo) [Example 111, (trans)-N-((2-(3,5-difluorobenzoyl)-5-(3-methoxyphenyl)-1,2,3,4-tetrahydroisoquinolin-8-yl)methyl)-2-phenylcyclopropanecarboxamide]: the IC50 amounted to 971 nM.

Consider `COc1cccc(-c2ccc(CNC(=O)[C@@H]3C[C@H]3c3ccccc3)c3c2CCN(C(=O)C(C)(C)C)C3)c1` (relative stereo) [Example 113, (trans)-N-((5-(3-methoxyphenyl)-2-pivaloyl-1,2,3,4-tetrahydroisoquinolin-8-yl)methyl)-2-phenylcyclopropanecarboxamide], for which the IC50 worked out at 887 nM.

In the case of `COc1cccc(-c2ccc(CNC(=O)[C@@H]3C[C@H]3c3ccccc3)c3c2CCN(C(=O)C(C)(C)O)C3)c1` (relative stereo) [Example 117, (trans)-N-((2-(2-hydroxy-2-methylpropanoyl)-5-(3-methoxyphenyl)-1,2,3,4-tetrahydroisoquinolin-8-yl)methyl)-2-phenylcyclopropanecarboxamide], the IC50 is 831 nM.

Regarding `COc1cccc(-c2ccc(CNC(=O)[C@@H]3C[C@H]3c3ccccc3)c3c2CCN(C(=O)C(O)C(F)(F)F)C3)c1` (relative stereo) [Example 119, (trans)-N-((5-(3-methoxyphenyl)-2-(3,3,3-trifluoro-2-hydroxypropanoyl)-1,2,3,4-tetrahydroisoquinolin-8-yl)methyl)-2-phenylcyclopropanecarboxamide], the IC50 was determined as 1540 nM.

Consider `COC[C@H]1CCC[C@H]1NC(=O)CN1CCc2c(-c3cccc(OC(F)(F)F)c3)ccc(CNC(=O)C3CC3c3nc(C)no3)c2C1` (stereo in doubt) [Example 86, N-((2-(2-(((trans)-2-(methoxymethyl)cyclopentyl)amino)-2-oxoethyl)-5-(3-(trifluoromethoxy)phenyl)-1,2,3,4-tetrahydroisoquinolin-8-yl)methyl)-2-(3-methyl-1,2,4-oxadiazol-5-yl)cyclopropanecarboxamide], for which the IC50 was determined as 2290 nM.

For `Cc1noc([C@H]2C[C@@H]2C(=O)NCc2ccc(-c3cccc(C(F)(F)F)c3)c3c2CN(C(=O)C(C)(C)O)CC3)n1` (stereo in doubt) [Example 116, (trans)-N-((2-(2-hydroxy-2-methylpropanoyl)-5-(3-(trifluoromethyl)phenyl)-1,2,3,4-tetrahydroisoquinolin-8-yl)methyl)-2-(3-methyl-1,2,4-oxadiazol-5-yl)cyclopropanecarboxamide], the IC50 was found to be 1580 nM.

`Cc1noc([C@@H]2C[C@H]2C(=O)NCc2ccc(-c3cccc(C(F)(F)F)c3)c3c2CN(C(=O)C(C)(C)O)CC3)n1` (stereo in doubt) [Example 120, (trans)-N-((2-(2-hydroxy-2-methylpropanoyl)-5-(3-(trifluoromethyl)phenyl)-1,2,3,4-tetrahydroisoquinolin-8-yl)methyl)-2-(3-methyl-1,2,4-oxadiazol-5-yl)cyclopropanecarboxamide]: the IC50 was 1580 nM.

Turning to `Cc1noc(C2CC2C(=O)NCc2ccc(-c3cccc(OC(F)(F)F)c3)c3c2CN(C(=O)NC(C)(C)C)CC3)n1` (stereo not drawn) [Example 1, N-(tert-butyl)-8-(((trans)-2-(3-methyl-1,2,4-oxadiazol-5-yl)cyclopropanecarboxamide)methyl)-5-(3-(trifluoromethoxy)phenyl)-3,4-dihydroisoquinoline-2(1H)-carboxamide], the 50% inhibitory concentration (IC50) worked out at 3.6 nM.

In the case of `CC(C)(C)NC(=O)N1CCc2c(-c3cccc(OC(F)(F)F)c3)ccc(CNC(=O)C3CC3c3cccnc3)c2C1` (centres unmarked) [Example 4, N-(tert-butyl)-8-((2-(pyridin-3-yl)cyclopropanecarboxamido)methyl)-5-(3-(trifluoromethoxy)phenyl)-3,4-dihydroisoquinoline-2(1H)-carboxamide], the IC50 is 11.7 nM.

With `COC(=O)c1cccc(-c2ccc(CNC(=O)C3CC3c3nc(C)no3)c3c2CCN(C(=O)NC(C)(C)C)C3)c1` (centres unmarked) [Example 7, methyl 3-(2-(tert-butylcarbamoyl)-8-((2-(3-methyl-1,2,4-oxadiazol-5-yl)cyclopropanecarboxamido)methyl)-1,2,3,4-tetrahydroisoquinolin-5-yl)benzoate], the IC50 was 15.5 nM.

For the compound `COc1cccc(-c2ccc(CNC(=O)C3CC3c3cccnc3)c3c2CCN(C(=O)NC(C)(C)C)C3)c1` (centres unmarked) [Example 13, N-(tert-butyl)-5-(3-methoxyphenyl)-8-((2-(pyridin-3-yl)cyclopropanecarboxamido)methyl)-3,4-dihydroisoquinoline-2(1H)-carboxamide], the IC50 came to 6.1 nM.

In the case of `COC(=O)c1cccc(-c2ccc(CNC(=O)C3CC34CCCCC4)c3c2CCN(C(=O)NC(C)(C)C)C3)c1` (centres unmarked) [Example 17, methyl 3-(2-(tert-butylcarbamoyl)-8-((spiro[2.5]octane-1-carboxamido)methyl)-1,2,3,4-tetrahydroisoquinolin-5-yl)benzoate], the IC50 was 2.2 nM.

On to `COC(=O)c1cccc(-c2ccc(CNC(=O)C3CC3c3nc(C)no3)c3c2CCN(C(=O)NC(C)(C)C)C3)c1` (centres unmarked) [Example 21, methyl 3-(2-(tert-butylcarbamoyl)-8-((2-(3-methyl-1,2,4-oxadiazol-5-yl)cyclopropanecarboxamido)methyl)-1,2,3,4-tetrahydroisoquinolin-5-yl)benzoate], for which the IC50 came to 15.5 nM.

`CC(C)(C)NC(=O)N1CCc2c(-c3cncc(CO)c3)ccc(CNC(=O)C3C[C@H]3c3ccccc3)c2C1` (stereo partly drawn) [Example 28, N-(tert-butyl)-5-(5-(hydroxymethyl)pyridin-3-yl)-8-(((trans)-2-phenylcyclopropanrcarboxamido)methyl)-3,4-dihydroisoquinoline-2(1H)-carboxamide]: the IC50 came to 992 nM.

Take `CC(C)(C)NC(=O)N1CCc2c(-c3cccc(-c4ncon4)c3)ccc(CNC(=O)C3C[C@H]3c3ccccc3)c2C1` (stereo partly drawn) [Example 51, 5-(3-(1,2,4-oxadiazol-3-yl)phenyl)-N-(tert-butyI)-8-(((trans)-2-phenylcyclopropanecarboxamido)methyl)-3,4-dihydroisoquinoline-2(1H)-carboxamide]: the IC50 came to 5.78 nM.

As for `COC(=O)c1cccc(-c2ccc(CNC(=O)C3CC3c3ccccc3)c3c2CCN(C(=O)NC2CC(F)(F)C2)C3)c1` (centres unmarked) [Example 56, methyl 3-(2-((3,3-difluorocyclobutyl)carbamoyl)-8-((2-phenylcyclopropanecarboxamido)methyl)-1,2,3,4-tetrahydroisoquinolin-5-yl) benzoate], the IC50 turned out to be 9.88 nM.

As to `COc1cccc(-c2ccc(CNC(=O)C3CC3c3ccccc3)c3c2CCN(C(=O)NC2CC(F)(F)C2)C3)c1` (centres unmarked) [Example 57, N-(3,3-difluorocyclobutyl)-5-(3-methoxyphenyl)-8-((2-phenylcyclopropanecarboxamido)methyl)-3,4-dihydroisoquinoline-2(1H)-carboxamide], the IC50 stood at 87 nM.

On to `Cc1noc(C2CC2C(=O)NCc2ccc(-c3cccc(OC(F)(F)F)c3)c3c2CN(C(=O)NC2(C)CCS(=O)(=O)C2)CC3)n1` (centres unmarked) [Example 58, N-(3-methyl-1,1-dioxidotetrahydrothiophen-3-yl)-8-((2-(3-methyl-1,2,4-oxadiazol-5-yl)cyclopropanecarboxamido)methyl)-5-(3-(trifluoromethoxy)phenyl)-3,4-dihydroisoquinoline-2(1H)-carboxamide], for which the IC50 worked out at 24 nM.

The record behind these values is patent US10568876B2, “Tetrahydroisoquinoline derivatives useful as inhibitors of diacylglyceride O-acyltransferase 2” (Merck Sharp & Dohme Corp., priority 2014, dated 2020).
